Paper PMC5090206, “Fluselenamyl: A Novel Benzoselenazole Derivative for PET Detection of Amyloid Plaques (Aβ) in Alzheimer’s Disease” (Scientific Reports, 2016)

Columns and labels:
AD homogenates = AD homogenates (Homo sapiens, UniProt P05067); assay: Saturation binding of [18F]-9 with AD homogenates
Experimental: For assessing the ability of [^18F]-9 to bind Aβ plaques; binding assays with either AD homogenates or preformed Aβ1–42 aggregates were performed in 30 mM Tris, pH 7.4 buffer supplemented with 0.1% BSA[39]. Nonspecific binding was determined in the presence of 5 (1 μM) as a competitor.
Scientific Reports Version of August 4, 2016 other neurodegenerative diseases (SI, Figure 4A & 4B). Sections were visualized, processed, and analyzed using a Pascal confocal microscope.
Preparation of Human Brain Homogenates.
Well-established literature procedures were used for preparation of AD homogenates. 11,12 Grey matter was isolated from frozen postmortem frontal cortex tissue by dissection with a scalpel. […]
Binding assays were performed using previously described methods.11 Briefly, a fixed concentration (0.25 µM/well) of Aβ1–42 fibrils was incubated for 1 h at 37 °C with increasing concentrations of [18F]-9 (0.1 nM-15 nM) in 30 mM Tris-HCl pH 7.4, 0.1% BSA in a reaction volume of 150 µl. […] The exact hot:cold ([18F]-9 : 5) ratio was measured in each experiment by counting an aliquot of a sample (2 µl) of the radioligand preparation in a scintillation counter. Binding of [18F]-9 to human brain homogenates was assessed by incubating samples of insoluble fraction (1.25 µg insoluble protein/well) from AD subjects, with increasing concentrations of [18F]-9 (0.1nM-18 nM) for 1 h at 37 °C. Nonspecific binding was determined in parallel experiments in the presence of 5 (1 µM) as a competitor. […] Glass fiber filters containing the bound ligand were mixed with Optiphase Supermix scintillation cocktail (150µl; PerkinElmer) and counted immediately.
All data were obtained in triplicate and analyzed by curve fitting to a one-site binding model using nonlinear regression employing Graphpad Prism software (version 4.0) to determine Kd and Bmax values.
Bmax values were calculated in pmol/gram wet weight of brain tissue. […]

cortical Aβ plaques = cortical Aβ plaques (Homo sapiens, UniProt P05067); assay: In vitro autoradiography of AD frontal cortex sections; assay type: binding
Experimental: Literature precedents indicate the presence of at least three different binding sites, characterized as BS1, BS2 and BS3 on the Aβ fibrils in vitro[24] and extracts from AD homogenates. […] Overall, these investigations indicate that different PET tracers may be beneficial to better understand Aβ pathophysiology in vivo. […] Further, to evaluate ability of [^18F]-9 for labeling Aβ in autopsy confirmed human brain sections, autoradiography and immunohistochemical correlations were also performed.
Scientific Reports Version of August 4, 2016
Autoradiography of Human Brain Sections and Immunohistochemistry Correlation Autoradiography and immunohistochemistry (IHC) were performed as previously described14 with minor modifications. Briefly, a sample of frozen AD frontal cortex was sectioned using a TBS Minotome PLUS Cryostat set at a thickness of 12 microns. The tissue sections were thaw-mounted onto Superfrost Plus (Fisherbrand 12-550-15) microscope slides and allowed to air dry for 10–15 min prior to storage at -80 °C. […]
Autoradiography images were obtained on GE Typhoon System FLA-9500 (Tokyo, Japan) at 25 µm resolution. […] IHC images were obtained on a NanoZoomer 2.0-HT System ([…]) at 20x resolution with DAPI and TRITC fluorescence filters using NDP.scan 2.5 software ([…]). […]

Chain of AD homogenates (P05067 672-711 limits assumed): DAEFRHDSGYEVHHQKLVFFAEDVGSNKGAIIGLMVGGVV
Chain of cortical Aβ plaques (P05067 672-711 limits assumed): as above

Compound | Bmax (AD homogenates) [pmol/g wet wt.] | binding affinity higher than approved FDA tracers (AD homogenates) | Kd (AD homogenates; 30 mM Tris pH 7.4, 0.1% BSA, one-site model) [nM] | labeling in autoradiography (cortical Aβ plaques; 2 nM, 60 min, AD frontal cortex sections (12 μm)) | effect on [18F]-9 binding in autoradiography (cortical Aβ plaques; 1 μM cold ligand with 2 nM [18F]-9)
CN(C)c1ncc(/C=C\c2nc3cc(OCC[18F])ccc3[se]2)cn1 [[^18F]-9] | 546 | 2–10 fold | 1.7 | showed labeling of cortical Aβ plaques | 
CN(C)c1ncc(/C=C\c2nc3cc(OCCF)ccc3[se]2)cn1 [compound 5, (Z)-5-(2-(5-(2-fluoroethoxy)benzo[d][1,3]selenazol-2-yl)vinyl)-N,N-dimethylpyrimidin-2-amine] |  |  |  |  | binding was inhibited
